ChEMBL document CHEMBL1201862, “PubChem BioAssay data set” (2004)
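1) Cells in 96-well plates. 2) Compound, 48 h, 5 concentrations. 3) Linear interpolation between surrounding doses. 4) Unreached endpoint = highest concentration. GI50 is the concentration that inhibits growth by half.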 Activity calls are given as the source filed them. Rule as the data show it: active = GI50 up to about 1.1 µM and inactive = higher.

Experiments:
Test in all cases: inhibition of tumour cell growth, NCI panel, 48 h
RPMI-8226 = system: RPMI-8226
UACC-257 = system: UACC-257
DU-145 = system: DU-145
MCF7 = system: MCF7
SF-268 = system: SF-268
MOLT-4 = system: MOLT-4
NCI-H226 = system: NCI-H226
COLO 205 = system: COLO 205
A549 = system: A549
CAKI-1 = system: CAKI-1
UACC-62 = system: UACC-62
BT-549 = system: BT-549
KM12 = system: KM12
SNB-19 = system: SNB-19
HOP-62 = system: HOP-62
NCI-H23 = system: NCI-H23
SW-620 = system: SW-620
PC-3 = system: PC-3
OVCAR-8 = system: OVCAR-8
HL-60 = system: HL-60

| SMILES | GI50 (RPMI-8226) | GI50 (UACC-257) | GI50 (DU-145) | GI50 (MCF7) | GI50 (SF-268) | GI50 (MOLT-4) | GI50 (NCI-H226) | GI50 (COLO 205) | GI50 (A549) | GI50 (CAKI-1) | GI50 (UACC-62) | GI50 (BT-549) | GI50 (KM12) | GI50 (SNB-19) | GI50 (HOP-62) | GI50 (NCI-H23) | GI50 (SW-620) | GI50 (PC-3) | GI50 (OVCAR-8) | GI50 (HL-60) |
| --- | --- | --- | --- | --- | --- | --- | --- | --- | --- | --- | --- | --- | --- | --- | --- | --- | --- | --- | --- | --- |
| S=C(Nc1c2c(nc3ccccc13)CCCC2)Nc1c2c(nc3ccccc13)CCCC2 | > 100 µM (inactive) | > 100 µM (inactive) | > 100 µM (inactive) | > 100 µM (inactive) | > 100 µM (inactive) | > 100 µM (inactive) | > 100 µM (inactive) | > 100 µM (inactive) | > 100 µM (inactive) | > 100 µM (inactive) | > 100 µM (inactive) | > 100 µM (inactive) | > 100 µM (inactive) | > 100 µM (inactive) | > 100 µM (inactive) | > 100 µM (inactive) | > 100 µM (inactive) | > 100 µM (inactive) | > 100 µM (inactive) |  |
| CNc1nc(N)nc(Nc2ccc(I)cc2)c1N=O | > 100 µM (inactive) | 85.3 µM (inactive) | > 100 µM (inactive) | > 100 µM (inactive) | > 100 µM (inactive) | 78.5 µM (inactive) |  | 36.4 µM (inactive) | > 100 µM (inactive) |  | 48 µM (inactive) | > 100 µM (inactive) | > 100 µM (inactive) | > 100 µM (inactive) | > 100 µM (inactive) | > 100 µM (inactive) | > 100 µM (inactive) | > 100 µM (inactive) | > 100 µM (inactive) | 62.4 µM (inactive) |
| CC(=O)OCC1OC(n2c(N)c(C#N)c(C)c(C#N)c2=S)C(OC(C)=O)C(OC(C)=O)C1OC(C)=O (centres undefined) | > 100 µM (inactive) | > 100 µM (inactive) | > 100 µM (inactive) | > 100 µM (inactive) | > 100 µM (inactive) | > 100 µM (inactive) | > 100 µM (inactive) | > 100 µM (inactive) | > 100 µM (inactive) | > 100 µM (inactive) | > 100 µM (inactive) | > 100 µM (inactive) | > 100 µM (inactive) | > 100 µM (inactive) | > 100 µM (inactive) | > 100 µM (inactive) | > 100 µM (inactive) | > 100 µM (inactive) | > 100 µM (inactive) |  |
| CC(C)CCNC(=O)c1ccc(CNC(=O)/C=C/c2csc(-c3ccccc3)n2)cc1 | > 100 µM (inactive) | 96.8 µM (inactive) | > 100 µM (inactive) | > 100 µM (inactive) | 35.4 µM (inactive) | > 100 µM (inactive) | 33.3 µM (inactive) | > 100 µM (inactive) | 40.1 µM (inactive) | 18.7 µM (inactive) | > 100 µM (inactive) | 78.5 µM (inactive) | > 100 µM (inactive) | 17.8 µM (inactive) | 17.9 µM (inactive) | > 100 µM (inactive) | > 100 µM (inactive) | > 100 µM (inactive) | 25.8 µM (inactive) |  |
| Cc1nc(C(N)=S)sc1/C(CC(=O)C(=O)Nc1cccc2ccc(O)cc12)=N\NC(=O)c1ccncc1 |  | > 100 µM (inactive) | 55.3 µM (inactive) | 39.7 µM (inactive) | 82.8 µM (inactive) | 28.2 µM (inactive) | 61.1 µM (inactive) | 49.2 µM (inactive) | > 100 µM (inactive) | > 100 µM (inactive) | 29.5 µM (inactive) | > 100 µM (inactive) | > 100 µM (inactive) | 73.5 µM (inactive) | 37.5 µM (inactive) | > 100 µM (inactive) | > 100 µM (inactive) | 75.9 µM (inactive) | 49.1 µM (inactive) | 25.6 µM (inactive) |
| CCOc1ccc(/C=N/[N+](C)(C)C)cc1OCC | > 10 µM (inactive) | > 10 µM (inactive) | > 10 µM (inactive) | > 10 µM (inactive) | > 10 µM (inactive) | > 10 µM (inactive) |  | > 10 µM (inactive) | > 10 µM (inactive) | > 10 µM (inactive) | > 10 µM (inactive) | > 10 µM (inactive) | > 10 µM (inactive) | > 10 µM (inactive) | > 10 µM (inactive) | > 10 µM (inactive) | > 10 µM (inactive) | > 10 µM (inactive) | > 10 µM (inactive) |  |
| CC(=O)Nc1ccc(N2C(=O)CS(=O)(=O)C2c2cccc(Oc3ccccc3)c2)cc1 (centres undefined) |  | 16.8 µM (inactive) | 33.7 µM (inactive) | 18.7 µM (inactive) | 20.2 µM (inactive) | 29.7 µM (inactive) | 17.2 µM (inactive) | 17.2 µM (inactive) | 20 µM (inactive) |  | 13.4 µM (inactive) | 16.8 µM (inactive) | 17.2 µM (inactive) | 18 µM (inactive) | 19.3 µM (inactive) | 18.5 µM (inactive) | 28.9 µM (inactive) | 16.8 µM (inactive) | 16.7 µM (inactive) | 23.5 µM (inactive) |
| COC(=O)[C@@]12CCCC(=O)[C@@H]1[C@H]1CCCC[C@H]12 | > 100 µM (inactive) | > 100 µM (inactive) | > 100 µM (inactive) | > 100 µM (inactive) | > 100 µM (inactive) | 30.6 µM (inactive) | > 100 µM (inactive) | > 100 µM (inactive) | > 100 µM (inactive) | > 100 µM (inactive) | > 100 µM (inactive) | > 100 µM (inactive) | > 100 µM (inactive) | > 100 µM (inactive) | > 100 µM (inactive) | > 100 µM (inactive) | > 100 µM (inactive) | > 100 µM (inactive) | > 100 µM (inactive) |  |
| C[n+]1c(-c2ccccc2)cc2/c(=C\c3ccc([N+](=O)[O-])cc3)c3ccccc3n21 |  | 4.99 µM (inactive) | 1.74 µM (inactive) | 2.1 µM (inactive) | 3.47 µM (inactive) | 0.966 µM (active) | 2.65 µM (inactive) | 0.532 µM (active) | 2.15 µM (inactive) | 15.8 µM (inactive) | 6.35 µM (inactive) | 0.281 µM (active) | 3.29 µM (inactive) | 3.06 µM (inactive) | 4.84 µM (inactive) | 2.51 µM (inactive) | 1.79 µM (inactive) | 3.1 µM (inactive) | 1.66 µM (inactive) | 0.764 µM (active) |
| COc1ccccc1/N=N/C(=N\NC(=O)c1ccc(C)cc1)c1ccc(N(CCC#N)CCC#N)cc1C | 40.4 µM (inactive) | 40.3 µM (inactive) | 32.6 µM (inactive) | 34.6 µM (inactive) | 38.1 µM (inactive) | 35.2 µM (inactive) | 2.19 µM (inactive) | 15.7 µM (inactive) | 40.9 µM (inactive) | > 100 µM (inactive) |  | 35.2 µM (inactive) | 41.6 µM (inactive) | 97.3 µM (inactive) | 50.9 µM (inactive) | 28.2 µM (inactive) | 47.5 µM (inactive) | 35 µM (inactive) | 42.3 µM (inactive) |  |
| COc1ccc(-c2nnc3n(C)c4ccccc4n3c2=O)cc1 |  | > 100 µM (inactive) | > 100 µM (inactive) | > 100 µM (inactive) | 29.6 µM (inactive) | > 100 µM (inactive) | > 100 µM (inactive) | > 100 µM (inactive) | > 100 µM (inactive) | 76 µM (inactive) |  | 72.4 µM (inactive) | > 100 µM (inactive) | 91.8 µM (inactive) | 14.5 µM (inactive) | 40.1 µM (inactive) | > 100 µM (inactive) | > 100 µM (inactive) | 56.1 µM (inactive) | > 100 µM (inactive) |
